This is an account of results in article PMC10817512, “OSMAC-Based Discovery and Biosynthetic Gene Clusters Analysis of Secondary Metabolites from Marine-Derived Streptomyces globisporus SCSIO LCY30” (Marine Drugs, 2023).

For assay [1], the system named is cervical cancer cell line Hela. Description: Cell growth inhibitory (cytotoxic) activity assay. In kind it is cell-based, human. From the text: (§1) The cell growth inhibitory activities of compounds 1–3 against fourteen different human cell lines (human liver cell line LX-2; hepatocellular cancer line HEPG2; human intestinal epithelial cell line NCM460; colorectal cancer cell lines HCT116 and SW480; normal human breast cell line MCF-10A; breast cancer cell line MCF7; triple-negative breast cancer cell lines MDA-MB-231, MDA-MB-468, and Bt-549; human umbilical vein endothelial cell line; lung cancer cell line A549; cervical cancer cell line Hela; and cholangiocarcinoma cell line RBE) were tested according to the previously published methods. SPSS software version 22.0 was used to test the IC50 values. Cisplatin and adriamycin were used as positive control agents, and all the experiments were carried out in triplicate.

For assay [2], the system named is cholangiocarcinoma cell line RBE. Description: Cell growth inhibitory (cytotoxic) activity assay. It is filed as cell-based, human.
Source text: as §1

The subject of assay [3] is colorectal cancer cell line HCT116. Description: Cell growth inhibitory (cytotoxic) activity assay. It is filed as cell-based, human.
Source text: as §1

Assay [4] relates to colorectal cancer cell line SW480. Description: Cell growth inhibitory (cytotoxic) activity assay. In kind it is cell-based, human. The note with it: SW480 (colorectal cancer).
Source text: as §1

Assay [5] has as its system hepatocellular cancer line HEPG2. The assay is described as follows: Cell growth inhibitory (cytotoxic) activity assay. In kind it is cell-based, human.
Source text: as §1

Assay [6] concerns lung cancer cell line A549. Description: Cell growth inhibitory (cytotoxic) activity assay. The note with it: Homo sapiens. It is filed as cell-based, human.
Source text: as §1

The test system of assay [7] is triple-negative breast cancer cell line Bt-549. Description: Cell growth inhibitory (cytotoxic) activity assay. In kind it is cell-based, human. The note with it: Bt-549 (TNBC).
Source text: as §1

In assay [8] the test system is triple-negative breast cancer cell line MDA-MB-231. Description: Cell growth inhibitory (cytotoxic) activity assay. In kind it is cell-based, human. The note with it: MDA-MB-231 (TNBC).
Source text: as §1

Assay [9] concerns triple-negative breast cancer cell line MDA-MB-468. Description: Cell growth inhibitory (cytotoxic) activity assay. It is filed as cell-based, human. The note with it: MDA-MB-468 (TNBC).
Source text: as §1

Assay [10] deals with human intestinal epithelial cell line NCM460. The assay is described as follows: Cell growth inhibitory (cytotoxic) activity assay. The following applies: NCM460 (normal intestinal epithelial cell line). In kind it is cell-based.
Source text: as §1

Assay [11] concerns human liver cell line LX-2. Description: Cell growth inhibitory (cytotoxic) activity assay. In kind it is cell-based. The note with it: LX-2 (human liver cell line).
Source text: as §1

Assay [12] concerns human umbilical vein endothelial cell line HUVEC. Description: Cell growth inhibitory (cytotoxic) activity assay. It is filed as cell-based.
Source text: as §1

The subject of assay [13] is normal human breast cell line MCF-10A. The assay is described as follows: Cell growth inhibitory (cytotoxic) activity assay. It is filed as cell-based. The note with it: MCF-10A (normal human breast cell line).
Source text: as §1

In assay [14] the test system is Staphylococcus simulans AKA1. The assay is described as follows: Antibacterial MIC, CLSI microdilution. It is filed as cell-based. The following applies: Staphylococcus simulans AKA1; 37 °C, 16–18 h; read-out: MIC.
Another assay concerns Bacillus subtilis BS01. Description: Antibacterial MIC, CLSI microdilution. The note with it: Bacillus subtilis BS01; 37 °C, 16–18 h; read-out: MIC. In kind it is cell-based. As for the experimental part:
(§2) An antibacterial activity test of compounds 1–3 was conducted according to a standard protocol provided by the Clinical and Laboratory Standards Institute (CLSI). Sixteen bacterial strains were used, including Staphylococcus aureus ATCC 29213, Staphylococcus aureus 16339, Staphylococcus aureus 1862, Staphylococcus aureus 3090, Staphylococcus aureus 991, Staphylococcus aureus 669, Staphylococcus aureus 745324, Staphylococcus aureus 16162, Staphylococcus aureus (cfr) GDE4P037P, Enterococcus faecalis ATCC 29212, Enterococcus faecalis 36950, Micrococcus luteus ML01, MRSA, Bacillus subtilis BS01, Enterococcus gallinarum 5F52C, and Enterococcus faecium 36711. Compounds 1–3 were dissolved in DMSO at a concentration of 3.2 mg/mL, and vancomycin and ampicilin were used as antibacterial control agents. […] All the assays were carried out in triplicate.
For orientation: In broth dilution the organism is exposed to a series of concentrations in liquid medium.

Assay [15] has as its system Enterococcus faecalis 36950. Description: Antibacterial MIC, CLSI microdilution. It is filed as cell-based. The note with it: Enterococcus faecalis 36950; 37 °C, 16–18 h; read-out: MIC. As to the method: as §2
Assay [16] relates to Enterococcus faecalis ATCC 29212. Description: Antibacterial MIC, CLSI microdilution. In kind it is cell-based. The following applies: ATCC29212; Enterococcus faecalis ATCC 29212; 37 °C, 16–18 h; read-out: MIC. As for the experimental part:
as §2

In assay [17] the test system is Enterococcus faecium 36711. The assay is described as follows: Antibacterial MIC, CLSI microdilution. In kind it is cell-based. The note with it: Enterococcus faecium 36711; 37 °C, 16–18 h; read-out: MIC. As for the experimental part: as §2
In assay [18] the test system is Enterococcus gallinarum 5F52C. Description: Antibacterial MIC, CLSI microdilution. In kind it is cell-based. The note with it: Enterococcus gallinarum 5F52C; 37 °C, 16–18 h; read-out: MIC. As to the method:
as §2

Another assay concerns Micrococcus luteus ML01. Description: Antibacterial MIC, CLSI microdilution. The note with it: Micrococcus luteus, ML01, Micrococcus luteus ML01; 37 °C, 16–18 h; read-out: MIC. It is filed as cell-based. As to the method:
as §2

For assay [19], the system named is Staphylococcus aureus (cfr) GDE4P037P. Description: Antibacterial MIC, CLSI microdilution. It is filed as cell-based. The note with it: Staphylococcus aureus (cfr) GDE4P037P; 37 °C, 16–18 h; read-out: MIC. As for the experimental part:
as §2

Assay [20] relates to Staphylococcus aureus 16162. The assay is described as follows: Antibacterial MIC, CLSI microdilution. It is filed as cell-based. The note with it: Staphylococcus aureus 16162; 37 °C, 16–18 h; read-out: MIC. As for the experimental part:
as §2

Assay [21] concerns Staphylococcus aureus 16339. The assay is described as follows: Antibacterial MIC, CLSI microdilution. In kind it is cell-based. The note with it: Staphylococcus aureus 16339; 37 °C, 16–18 h; read-out: MIC. As for the experimental part: as §2
Assay [22] concerns Staphylococcus aureus 1862. The assay is described as follows: Antibacterial MIC, CLSI microdilution. In kind it is cell-based. The following applies: Staphylococcus aureus 1862; 37 °C, 16–18 h; read-out: MIC. As to the method: as §2
The subject of assay [23] is Staphylococcus aureus 3090. Description: Antibacterial MIC, CLSI microdilution. In kind it is cell-based. The note with it: Staphylococcus aureus 3090; 37 °C, 16–18 h; read-out: MIC. As to the method:
as §2

Assay [24] relates to Staphylococcus aureus 669. Description: Antibacterial MIC, CLSI microdilution. The following applies: Staphylococcus aureus 669; 37 °C, 16–18 h; read-out: MIC. In kind it is cell-based. As for the experimental part:
as §2

Assay [25] deals with Staphylococcus aureus 745324. Description: Antibacterial MIC, CLSI microdilution. In kind it is cell-based. The following applies: Staphylococcus aureus 745324; 37 °C, 16–18 h; read-out: MIC. As to the method:
as §2

In assay [26] the test system is Staphylococcus aureus 991. The assay is described as follows: Antibacterial MIC, CLSI microdilution. It is filed as cell-based. The following applies: Staphylococcus aureus 991; 37 °C, 16–18 h; read-out: MIC. As to the method:
as §2

The subject of assay [27] is Staphylococcus aureus ATCC 29213. The assay is described as follows: Antibacterial MIC, CLSI microdilution. It is filed as cell-based. The following applies: ATCC29213; Staphylococcus aureus ATCC 29213; 37 °C, 16–18 h; read-out: MIC. As to the method: as §2
A further assay deals with MRSA. The assay is described as follows: Antibacterial MIC, CLSI microdilution. In kind it is cell-based, Staphylococcus aureus. The note with it: Staphylococcus aureus, 37 °C, 16–18 h, read-out: MIC. As to the method: as §2
Assay [28] deals with breast cancer cell line MCF7. Description: Cell growth inhibitory (cytotoxic) activity assay. In kind it is cell-based, human. An excerpt:
SPSS software version 22.0 was used to test the IC50 values.

Converted amounts (≈) assume the structure as drawn. Read-outs that look alike come from different tables or passages of the source. Where only a bound is given, the exact number is not on record here.

As to `COc1cccc2c1C(=O)c1c(O)c3c(c(O)c1C2=O)C[C@@](O)(C(=O)CO)C[C@@H]3O[C@H]1C[C@H](N)[C@H](O)[C@H](C)O1` [Adriamycin, reference compound], the half-inhibitory concentration (IC50) (usually the concentration that gives 50% inhibition) in assay [1] (Homo sapiens) turned out to be 7.02 µM; in assay [2] (Homo sapiens), 4.26 µM; in assay [3] (Homo sapiens, HCT-116) it was 1.54 µM; in [4] (Homo sapiens), 17.5 µM; in assay [5] (Homo sapiens), 15.5 µM; in assay [6], 1.51 µM. Also, the half-maximal inhibitory concentration (IC50) was determined as 3.75 µM in assay [7] (Homo sapiens); 4.04 µM in assay [8] (Homo sapiens); 3.16 µM in assay [9] (Homo sapiens); 3.89 µM in assay [10] (Homo sapiens); 1.36 µM in assay [11]; 12 µM in [12]. In assay [13], half-maximal inhibition (IC50) required 3.72 µM.

With `CC1(C)S[C@@H]2[C@H](NC(=O)[C@H](N)c3ccccc3)C(=O)N2[C@H]1C(=O)O` [Ampicillin, reference compound], the MIC – broadly, the least concentration at which growth counts as inhibited – in assay [14] was over 64 µg/mL; with Bacillus subtilis BS01 it was 0.13 µg/mL (≈ 0.372 µM); in [15] it was over 64 µg/mL; in [16] it was 1 µg/mL (≈ 2.86 µM); in assay [17] it was over 64 µg/mL; in assay [18] it was 8 µg/mL (≈ 22.9 µM). Moreover, the minimal inhibitory concentration (MIC) with Micrococcus luteus ML01 came to 0.13 µg/mL (≈ 0.372 µM); in assay [19], 16 µg/mL (≈ 45.8 µM); in [20], 16 µg/mL (≈ 45.8 µM); in [21] it was 64 µg/mL (≈ 183 µM); in assay [22], 4 µg/mL (≈ 11.4 µM); in assay [23], 16 µg/mL (≈ 45.8 µM). For the same compound, the minimum inhibitory concentration (MIC) in assay [24] came to 8 µg/mL (≈ 22.9 µM); in assay [25], 4 µg/mL (≈ 11.4 µM); in assay [26], 4 µg/mL (≈ 11.4 µM); in assay [27] it was 1 µg/mL (≈ 2.86 µM); in the assay with MRSA, 32 µg/mL (≈ 91.6 µM).

`N.N.[Cl][Pt][Cl]` [Cisplatin, reference compound]: the IC50 in assay [1] turned out to be 7.62 µM; in [2] it was 13.5 µM; in [3] it was 4.83 µM; in [4], 1.82 µM; in [5], 11 µM; in assay [7], 7.54 µM. Besides, the IC50 in assay [8] is 15.7 µM; in [9] it was 8.35 µM; in assay [28] it was 4.56 µM; in [10], 3.17 µM; in assay [11], 12.1 µM; in [12] it was 7.7 µM. Also, in assay [13], it took 6.43 µM to reach half-maximal inhibition (IC50).
